Molecular target: T1, human PAH with the R408W mutation (A375 R408W cells) (Homo sapiens, UniProt P00439, R408W)
T1 construct: expressed in transfected cells
T1 sequence (P00439 1-452 R408W): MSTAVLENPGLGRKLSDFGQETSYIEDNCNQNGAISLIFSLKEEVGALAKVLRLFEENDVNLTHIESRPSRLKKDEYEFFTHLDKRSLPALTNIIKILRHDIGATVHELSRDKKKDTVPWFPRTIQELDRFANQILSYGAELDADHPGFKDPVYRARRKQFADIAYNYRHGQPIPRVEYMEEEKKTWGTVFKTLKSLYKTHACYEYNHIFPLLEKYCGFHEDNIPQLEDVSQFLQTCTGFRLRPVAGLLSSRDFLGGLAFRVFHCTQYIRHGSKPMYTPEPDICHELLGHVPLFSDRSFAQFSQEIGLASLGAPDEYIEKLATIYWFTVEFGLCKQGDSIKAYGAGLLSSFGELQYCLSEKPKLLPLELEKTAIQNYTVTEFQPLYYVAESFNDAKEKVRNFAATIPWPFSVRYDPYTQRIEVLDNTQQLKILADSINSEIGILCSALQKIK
Assay: Cell Based Phenylalanine Flux Assay
Conditions: A375 R408W cells; 24 hrs with compound, then 20 μM sepiapterin and 800 μM 13C9,15N-Phenylalanine for 4 hours; 13C-Tyrosine by LC-MS; average where tested multiple times
Summary of the method: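 AC50 is derived from LC-MS of 13C-tyrosine in the media after a 4 h pulse of 800 μM 13C9,15N-phenylalanine plus 20 μM sepiapterin. The A375 R408W PAH cells had received duplicate 10-point, 2-fold compound dilutions (0.5% DMSO) for 24 h beforehand.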

AC50 [nM] | SMILES
500 to 1000 | O=C(c1cnn2cc(N3CCOCC3)ccc12)N1CCc2[nH]cnc2[C@H]1c1nc2c(F)cccc2o1 [Example 504, (S)-(4-(4-fluorobenzo[d]oxazol-2-yl)-6,7-dihydro-1H-imidazo[4,5-c]pyridin-5(4H)-yl)(6-morpholinopyrazolo[1,5-a]pyridin-3-yl)methanone]
500 to 1000 | O=C(c1cnn2cc(N3CCC4(CC3)CC4)ccc12)N1CCc2[nH]cnc2[C@H]1c1nc2c(F)cccc2o1 [Example 505, (S)-(6-(6-azaspiro[2.5]octan-6-yl)pyrazolo[1,5-a]pyridin-3-yl)(4-(4-fluorobenzo[d]oxazol-2-yl)-6,7-dihydro-1H-imidazo[4,5-c]pyridin-5(4H)-yl)methanone]
1000 to 5000 | O=C(c1cnn2cc(N3CCC4(CC3)CC4)ccc12)N1CCc2[nH]cnc2[C@@H]1c1nc2c(F)cccc2o1 [Example 506, (R)-(6-(6-azaspiro[2.5]octan-6-yl)pyrazolo[1,5-a]pyridin-3-yl)(4-(4-fluorobenzo[d]oxazol-2-yl)-6,7-dihydro-1H-imidazo[4,5-c]pyridin-5(4H)-yl)methanone]
500 to 1000 | CC(C)(O)C1CCN(c2ccc3c(C(=O)N4CCc5[nH]cnc5[C@H]4c4nc5c(F)cccc5o4)cnn3c2)CC1 [Example 507, (S)-(4-(4-fluorobenzo[d]oxazol-2-yl)-6,7-dihydro-1H-imidazo[4,5-c]pyridin-5(4H)-yl)(6-(4-(2-hydroxypropan-2-yl)piperidin-1-yl)pyrazolo[1,5-a]pyridin-3-yl)methanone]
≥ 5000 | CC(C)(O)C1CCN(c2ccc3c(C(=O)N4CCc5[nH]cnc5[C@@H]4c4nc5c(F)cccc5o4)cnn3c2)CC1 [Example 508, (R)-(4-(4-fluorobenzo[d]oxazol-2-yl)-6,7-dihydro-1H-imidazo[4,5-c]pyridin-5(4H)-yl)(6-(4-(2-hydroxypropan-2-yl)piperidin-1-yl)pyrazolo[1,5-a]pyridin-3-yl)methanone]
≤ 500 | Cc1cccc2oc([C@@H]3c4nc[nH]c4CCN3C(=O)c3cnco3)nc12 [Example 509, (S)-(4-(4-methylbenzo[d]oxazol-2-yl)-6,7-dihydro-1H-imidazo[4,5-c]pyridin-5(4H)-yl)(oxazol-5-yl)methanone]
1000 to 5000 | Cc1cccc2oc([C@H]3c4nc[nH]c4CCN3C(=O)c3cnco3)nc12 [Example 510, (R)-(4-(4-methylbenzo[d]oxazol-2-yl)-6,7-dihydro-1H-imidazo[4,5-c]pyridin-5(4H)-yl)(oxazol-5-yl)methanone]
500 to 1000 | Cc1cccc2oc([C@@H]3c4nc[nH]c4CCN3C(=O)c3cnc(C(C)(C)O)o3)nc12 [Example 511, (S)-(2-(2-hydroxypropan-2-yl)oxazol-5-yl)(4-(4-methylbenzo[d]oxazol-2-yl)-6,7-dihydro-1H-imidazo[4,5-c]pyridin-5(4H)-yl)methanone]
1000 to 5000 | Cc1cccc2oc([C@H]3c4nc[nH]c4CCN3C(=O)c3cnc(C(C)(C)O)o3)nc12 [Example 512, (R)-(2-(2-hydroxypropan-2-yl)oxazol-5-yl)(4-(4-methylbenzo[d]oxazol-2-yl)-6,7-dihydro-1H-imidazo[4,5-c]pyridin-5(4H)-yl)methanone]
500 to 1000 | O=C(c1ccnn1C(F)F)N1CCc2[nH]cnc2[C@H]1c1nc2ccc(F)c(F)c2o1 [Example 513, (S)-(4-(6,7-difluorobenzo[d]oxazol-2-yl)-6,7-dihydro-1H-imidazo[4,5-c]pyridin-5(4H)-yl)(1-(difluoromethyl)-1H-pyrazol-5-yl)methanone]
1000 to 5000 | O=C(c1ccnn1C(F)F)N1CCc2[nH]cnc2[C@@H]1c1nc2ccc(F)c(F)c2o1 [Example 514, (R)-(4-(6,7-difluorobenzo[d]oxazol-2-yl)-6,7-dihydro-1H-imidazo[4,5-c]pyridin-5(4H)-yl)(1-(difluoromethyl)-1H-pyrazol-5-yl)methanone]
500 to 1000 | Cn1cc(-c2nnc(C(=O)N3CCc4[nH]cnc4[C@H]3c3nc4ccc(F)c(F)c4o3)o2)cn1 [Example 515, (S)-(4-(6,7-difluorobenzo[d]oxazol-2-yl)-6,7-dihydro-1H-imidazo[4,5-c]pyridin-5(4H)-yl)(5-(1-methyl-1H-pyrazol-4-yl)-1,3,4-oxadiazol-2-yl)methanone]
1000 to 5000 | Cn1cc(-c2nnc(C(=O)N3CCc4[nH]cnc4[C@@H]3c3nc4ccc(F)c(F)c4o3)o2)cn1 [Example 516, (R)-(4-(6,7-difluorobenzo[d]oxazol-2-yl)-6,7-dihydro-1H-imidazo[4,5-c]pyridin-5(4H)-yl)(5-(1-methyl-1H-pyrazol-4-yl)-1,3,4-oxadiazol-2-yl)methanone]
1000 to 5000 | Cn1cc(-c2nnc(C(=O)N3CCc4[nH]cnc4[C@@H]3c3nc4c(F)ccc(F)c4o3)o2)cn1 [Example 517, (R)-(4-(4,7-difluorobenzo[d]oxazol-2-yl)-6,7-dihydro-1H-imidazo[4,5-c]pyridin-5(4H)-yl)(5-(1-methyl-1H-pyrazol-4-yl)-1,3,4-oxadiazol-2-yl)methanone]
≤ 500 | Cn1cc(-c2nnc(C(=O)N3CCc4[nH]cnc4[C@H]3c3nc4c(F)ccc(F)c4o3)o2)cn1 [Example 518, (S)-(4-(4,7-difluorobenzo[d]oxazol-2-yl)-6,7-dihydro-1H-imidazo[4,5-c]pyridin-5(4H)-yl)(5-(1-methyl-1H-pyrazol-4-yl)-1,3,4-oxadiazol-2-yl)methanone]
500 to 1000 | O=C(c1nnc(-c2ccccn2)o1)N1CCc2[nH]cnc2[C@@H]1c1nc2c(F)ccc(F)c2o1 [Example 519, (R)-(4-(4,7-difluorobenzo[d]oxazol-2-yl)-6,7-dihydro-1H-imidazo[4,5-c]pyridin-5(4H)-yl)(5-(pyridin-2-yl)-1,3,4-oxadiazol-2-yl)methanone]
≤ 500 | O=C(c1nnc(-c2ccccn2)o1)N1CCc2[nH]cnc2[C@H]1c1nc2c(F)ccc(F)c2o1 [Example 520, (S)-(4-(4,7-difluorobenzo[d]oxazol-2-yl)-6,7-dihydro-1H-imidazo[4,5-c]pyridin-5(4H)-yl)(5-(pyridin-2-yl)-1,3,4-oxadiazol-2-yl)methanone]
1000 to 5000 | Cn1cc(-c2nnc(C(=O)N3CCc4[nH]cnc4[C@@H]3c3nc4c(F)cc(F)cc4o3)o2)cn1 [Example 521, (R)-(4-(4,6-difluorobenzo[d]oxazol-2-yl)-6,7-dihydro-1H-imidazo[4,5-c]pyridin-5(4H)-yl)(5-(1-methyl-1H-pyrazol-4-yl)-1,3,4-oxadiazol-2-yl)methanone]
500 to 1000 | Cn1cc(-c2nnc(C(=O)N3CCc4[nH]cnc4[C@H]3c3nc4c(F)cc(F)cc4o3)o2)cn1 [Example 522, (S)-(4-(4,6-difluorobenzo[d]oxazol-2-yl)-6,7-dihydro-1H-imidazo[4,5-c]pyridin-5(4H)-yl)(5-(1-methyl-1H-pyrazol-4-yl)-1,3,4-oxadiazol-2-yl)methanone]
500 to 1000 | O=C(c1nnc(-c2ccccn2)o1)N1CCc2[nH]cnc2[C@H]1c1nc2c(F)cc(F)cc2o1 [Example 523, (S)-(4-(4,6-difluorobenzo[d]oxazol-2-yl)-6,7-dihydro-1H-imidazo[4,5-c]pyridin-5(4H)-yl)(5-(pyridin-2-yl)-1,3,4-oxadiazol-2-yl)methanone]
1000 to 5000 | O=C(c1nnc(-c2ccccn2)o1)N1CCc2[nH]cnc2[C@@H]1c1nc2c(F)cc(F)cc2o1 [Example 524, (R)-(4-(4,6-difluorobenzo[d]oxazol-2-yl)-6,7-dihydro-1H-imidazo[4,5-c]pyridin-5(4H)-yl)(5-(pyridin-2-yl)-1,3,4-oxadiazol-2-yl)methanone]
1000 to 5000 | O=C(c1oc(-c2ccncn2)nc1C(F)F)N1CCc2[nH]cnc2[C@@H]1c1nc2cc(F)ccc2o1 [Example 525, (R)-(4-(difluoromethyl)-2-(pyrimidin-4-yl)oxazol-5-yl)(4-(5-fluorobenzo[d]oxazol-2-yl)-6,7-dihydro-1H-imidazo[4,5-c]pyridin-5(4H)-yl)methanone]
≤ 500 | O=C(c1oc(-c2ccncn2)nc1C(F)F)N1CCc2[nH]cnc2[C@H]1c1nc2cc(F)ccc2o1 [Example 526, (S)-(4-(difluoromethyl)-2-(pyrimidin-4-yl)oxazol-5-yl)(4-(5-fluorobenzo[d]oxazol-2-yl)-6,7-dihydro-1H-imidazo[4,5-c]pyridin-5(4H)-yl)methanone]
≤ 500 | O=C(c1oc(-c2cnccn2)nc1C(F)F)N1CCc2[nH]cnc2[C@H]1c1nc2cc(F)ccc2o1 [Example 527, (S)-(4-(difluoromethyl)-2-(pyrazin-2-yl)oxazol-5-yl)(4-(5-fluorobenzo[d]oxazol-2-yl)-6,7-dihydro-1H-imidazo[4,5-c]pyridin-5(4H)-yl)methanone]
1000 to 5000 | O=C(c1oc(-c2cnccn2)nc1C(F)F)N1CCc2[nH]cnc2[C@@H]1c1nc2cc(F)ccc2o1 [Example 528, (R)-(4-(difluoromethyl)-2-(pyrazin-2-yl)oxazol-5-yl)(4-(5-fluorobenzo[d]oxazol-2-yl)-6,7-dihydro-1H-imidazo[4,5-c]pyridin-5(4H)-yl)methanone]
≤ 500 | CC(C)(O)c1nc(C(F)F)c(C(=O)N2CCc3[nH]cnc3[C@H]2c2nc3cccc(OC(F)(F)F)c3o2)o1 [Example 529, (S)-(4-(difluoromethyl)-2-(2-hydroxypropan-2-yl)oxazol-5-yl)(4-(7-(trifluoromethoxy)benzo[d]oxazol-2-yl)-6,7-dihydro-1H-imidazo[4,5-c]pyridin-5(4H)-yl)methanone]

From US20250171437A1 (Agios Pharmaceuticals,Inc., priority 2022, published 2025)
